Test results as given in patent publication EP2892896B1 (Bristol-Myers Squibb Company, priority 2012, dated 2014).

Molecular target: T1, human melanin concentrating hormone receptor (MCHR1) (Homo sapiens, UniProt Q99705, A5T/E4Q)
T1 construct: expressed in transfected cells; host or cells: HEK-293 (stably transfected), membranes
Test: Radioligand binding assay for assessment of MCHR1 activity
Settings: membranes from HEK-293 cells expressing a mutated (E4Q, A5T) hMCHR1 receptor; competition with 0.06 - 0.1 nM [Phe13, [125I]Tyr19]-MCH; 90 min
Protocol: Radioligand Binding Assay for Assessment of MCHR1 Activity
An in vitro binding assay was used to determine the compound Ki value or ability to antagonize binding of a peptide agonist to the human melanin concentrating hormone receptor (MCHR1). […] Binding experiments were carried out with 0.5-1.0 µg of membrane protein incubated in a total of 0.2 mL in 25 mM HEPES (pH 7.4) with 10 mM MgCl2, 2 mM EGTA, and 0.1% BSA (Binding Buffer) for 90 min. For competition binding assays, reactions were carried out in the presence of with 0.06 - 0.1 nM [Phe^13, [^125I]Tyr^19]-MCH and increasing concentrations of unlabeled test molecules. […] Filters were dried, 0.05 mL MicroScint 20 was added to each well and radioactivity was subsequently quantified by scintillation counting on a TOPCOUNT® microplate scintillation counter (Packard). Inhibitory constants were determined by nonlinear least squares analysis using a four parameter logistic equation.

T1 sequence (Q99705 whole entry E4Q/A5T): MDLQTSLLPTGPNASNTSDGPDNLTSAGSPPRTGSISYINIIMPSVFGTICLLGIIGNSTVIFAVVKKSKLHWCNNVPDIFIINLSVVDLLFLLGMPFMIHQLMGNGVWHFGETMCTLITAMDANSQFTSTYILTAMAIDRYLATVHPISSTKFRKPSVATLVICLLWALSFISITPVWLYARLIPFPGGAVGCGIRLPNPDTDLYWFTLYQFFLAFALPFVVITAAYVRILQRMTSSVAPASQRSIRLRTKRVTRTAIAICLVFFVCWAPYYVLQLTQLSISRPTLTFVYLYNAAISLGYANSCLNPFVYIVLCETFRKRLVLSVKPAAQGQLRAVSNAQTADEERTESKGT

Row | Compound | Ki
1 | CCS(=O)(=O)C[C@@H](O)COc1ccc(N2CCC(Oc3ccc(-c4ccc(F)cc4)cc3)C2=O)cc1C (some centres unmarked) [Example 92] | 22 nM
2 | COc1cc(N2CCC(Oc3ccc(Cl)cc3)C2=O)ccc1OCC(C)(C)O (centres unmarked) [Example 3] | 2060 nM
3 | COc1cc(N2CC[C@H](Oc3ccc(C(F)(F)F)cc3)C2=O)ccc1OCC(C)(C)O (single isomer, unassigned) [Example 10] | 6000 nM
4 | COc1cc(N2CCC(Oc3ccc(OC(F)(F)F)c(F)c3)C2=O)ccc1OCC(C)(C)O (centres unmarked) [Example 18] | 959 nM
5 | COc1cc(N2CCC(Oc3ccc(C4CC4)cc3)C2=O)ccc1OC[C@H](O)CS(C)(=O)=O (some centres unmarked) [Example 60] | 17 nM
6 | Cc1cc(N2CC[C@H](Oc3ccc(-c4ccc(F)cc4)cc3)C2=O)ccc1OCCS(C)(=O)=O [Example 111] | 1740 nM
7 | COc1cc(N2CCC(Oc3ccc(-c4ccccc4)cc3)C2=O)ccc1OCCS(C)(=O)=O (centres unmarked) [Example 66] | 2 nM
8 | COc1cc(N2CCC(Oc3ccc(-c4ccccc4)c(Cl)c3)C2=O)ccc1OCC(C)(C)O (centres unmarked) [Example 29] | 87 nM
9 | COc1cc(N2CCC(Oc3ccc(-c4ccccc4Cl)cc3)C2=O)ccc1OCC(C)(C)O (centres unmarked) [Example 25] | 68 nM
10 | COc1cc(N2CCC(Oc3ccccc3C(F)(F)F)C2=O)ccc1OCC(C)(C)O (centres unmarked) [Example 6] | 7000 nM
11 | Cc1cc(N2CCC(Oc3ccc(-c4ccccc4)cc3)C2=O)ccc1OCC1(O)CC(F)(F)C1 (centres unmarked) [Example 90] | 10 nM
12 | COc1cc(N2CC=C(Oc3ccc(C4CC4)cc3)C2=O)ccc1OC[C@H](O)C1CC1 [Example 121] | 2 nM
13 | COc1cc(N2CC[C@@H](Oc3ccc(C4CC4)cc3)C2=O)ccc1OCCS(C)(=O)=O [Example 71, (R)-3-(4-Cyclopropylphenoxy)-1-(3-methoxy-4-(2-(methylsulfonyl)ethoxy)phenyl)pyrrolidin-2-one] | 3 nM
14 | COc1cc(N2CCC(Oc3ccc(C(F)(F)F)cc3)C2=O)ccc1OCC(C)(C)O (centres unmarked) [Example 8] | 34 nM
15 | Cc1cc(N2CCC(Oc3ccc(-c4ccccc4)nc3)C2=O)ccc1OCC(C)(C)O (centres unmarked) [Example 88] | 45 nM
16 | CCS(=O)(=O)C[C@@H](O)COc1ccc(N2CCC(Oc3ccc(OC4CC4)cc3)C2=O)cc1OC (some centres unmarked) [Example 56] | 71 nM
17 | COc1cc(N2CCC(Oc3ccc(-c4ccccc4C(F)(F)F)cc3)C2=O)ccc1OCC(C)(C)O (centres unmarked) [Example 28] | 956 nM
18 | Cc1cc(N2CCC(Oc3ccc(N4CCOCC4)cc3)C2=O)ccc1OCC(C)(C)O (centres unmarked) [Example 33] | 903 nM
19 | COc1cc(N2CC[C@@H](Oc3ccc(OC(F)(F)F)cc3)C2=O)ccc1OCC(C)(C)O [Example 15] | 11 nM
20 | COc1cc(N2CCC(Oc3ccc(C4CC4)cc3)C2=O)ccc1OCCS(C)(=O)=O (centres unmarked) [Example 70] | 7 nM
21 | COc1cc(N2CCC(Oc3ccc(-c4ccccc4OC)cc3)C2=O)ccc1OCC(C)(C)O (centres unmarked) [Example 27] | 238 nM
22 | CCS(=O)(=O)C[C@H](O)COc1ccc(N2CCC(Oc3ccc(OC(F)(F)F)cc3)C2=O)cc1OC (some centres unmarked) [Example 50] | 197 nM
23 | Cc1cc(N2CCC(Oc3ccc(C(F)(F)F)cn3)C2=O)ccc1OCC(C)(C)O (centres unmarked) [Example 86] | 5000 nM
24 | Cc1cc(N2CC[C@@H](Oc3ccc(-c4ccccc4)cc3)C2=O)ccc1OCCS(C)(=O)=O (single isomer, unassigned) [Example 106] | 636 nM
25 | COc1cc(N2CCC(Oc3ccc(-n4cccc4)cc3)C2=O)ccc1OCC(C)(C)O (centres unmarked) [Example 38] | 5 nM
26 | Cc1cc(N2CCC(Oc3ccc(-c4ccccc4)cc3)C2=O)ccc1OCCS(C)(=O)=O (centres unmarked) [Example 104] | 1 nM
27 | CCS(=O)(=O)C[C@@H](O)COc1ccc(N2CCC(Oc3ccc(C(F)(F)F)cc3)C2=O)cc1OC (some centres unmarked) [Example 53] | 109 nM
28 | Cc1cc(N2CCC(Oc3ccc(OC(F)(F)F)cc3)C2=O)ccc1OCCS(C)(=O)=O (centres unmarked) [Example 103] | 40 nM
29 | Cc1cc(N2CC[C@H](Oc3ccc(C4CC4)cc3)C2=O)ccc1OCC(C)(C)O [Example 83] | 168 nM

Further compounds by falling Ki, results first:

Row | Ki | Compound
30 | 5000 nM | COc1cc(N2CCC(Oc3cccc(OC(F)(F)F)c3)C2=O)ccc1OCC(C)(C)O (centres unmarked) [Example 11]
31 | 1060 nM | COc1cc(N2CC[C@H](Oc3ccc(-c4ccccc4)cc3)C2=O)ccc1OC[C@H](O)C1CC1 [Example 45]
32 | 480 nM | COc1cc(N2CCC(Oc3ccc(-n4ccnc4)cc3)C2=O)ccc1OCC(C)(C)O (centres unmarked) [Example 39]
33 | 473 nM | COc1cc(N2CCC(C)(Oc3ccc(OC(F)(F)F)cc3)C2=O)ccc1OCC(C)(C)O (centres unmarked) [Example 13, 1-(4-(2-Hydroxy-2-methylpropoxy)-3-methoxyphenyl)-3-methyl-3-(4-(trifluoromethoxy)phenoxy)pyrrolidin-2-one]
34 | 218 nM | COc1cccc(OC2CCN(c3ccc(OCC(C)(C)O)c(OC)c3)C2=O)c1 (centres unmarked) [Example 4]
35 | 73 nM | COc1cc(N2CCC(Oc3ccc(-c4ccncc4)cc3)C2=O)ccc1OCC(C)(C)O (centres unmarked) [Example 37]
36 | 64 nM | COc1cc(N2CCC(Oc3ccc(C4CC4)cc3)C2=O)ccc1OCCS(=O)(=O)CC(C)(C)O (centres unmarked) [Example 74]
37 | 42 nM | Cc1cc(N2CCC(Oc3ccc(C4CC4)cc3)C2=O)ccc1OC[C@@H](O)CS(C)(=O)=O (some centres unmarked) [Example 100]
38 | 31 nM | Cc1cc(N2CCC(Oc3ccc(C(F)(F)F)cc3)C2=O)ccc1OCCS(C)(=O)=O (centres unmarked) [Example 112]
39 | 22 nM | Cc1cc(N2CCC(Oc3ccc(CC(F)(F)F)cc3)C2=O)ccc1OCC(C)(C)O (centres unmarked) [Example 81]
40 | 19 nM | Cc1cc(N2CCC(Oc3ccc(-c4ccc(F)cc4)cc3)C2=O)ccc1OC[C@@H](O)CS(C)(=O)=O (some centres unmarked) [Example 99]
41 | 19 nM | COc1ccc(N2CCC(Oc3ccc(-c4ccccc4)cc3)C2=O)cc1OC (centres unmarked) [Example 43]
42 | 16 nM | CCS(=O)(=O)C[C@@H](O)COc1ccc(N2CCC(Oc3ccc(C4CC4)cc3)C2=O)cc1OC (some centres unmarked) [Example 52]
43 | 6 nM | Cc1cc(N2CCC(Oc3ccc(-c4ccccc4)cc3)C2=O)ccc1OCC[S+](C)[O-] (centres unmarked) [Example 102]
44 | 4 nM | COc1cc(N2CC=C(Oc3ccc(C4CC4)cc3)C2=O)ccc1OCC(C)(O)CO (centres unmarked) [Example 119]
